Some results are limits rather than exact numbers.

One data set concerns KG-1 cells. The experiment in a line: PKH26/AnnexinV flow cytometry of KG-1 cells co-cultured with γδ T-cells. It is filed as cell-based, human. As to conditions: 20 μg/mL (Doxil 13.3 μg/mL) 24 h, then 4 h with γδ T-cells 1:1 or 1:5, 100 U/mL IL-2. The protocol: The following method is based on the procedure described by Fischer and Mackensen (2003) The flow cytometric PKH-26 assay for the determination of T-cell mediated cytotoxic activity. Methods 31: 135-142.
Specifically, 1×10^5 KG-1 cells, previously stained with PKH26 Red Fluorescent, were plated in a 24 well plate in 1 mL of complete media. These cells were then treated with different preparations: • (i) 20 μg/mL Alendronate (free Alendronate) • (ii) 20 μg/mL of liposomal Alendronate+Doxorubicin (L-ALD/DOX), • (iii) 20 μg/mL of folate targeted liposomal Alendronate+Doxorubicin (FR-L-ALD/DOX); • (iv) 13.3 μg/mL Doxil (the amount of doxorubicin correspondent to doxorubicin in L-ALD/DOX) • (v) Empty liposomes (stealth) • (vi) Control—no treatment.
Cells were incubated for 24 h at 37° C. with a treatment formulation according to the above groups. After 24 h, each group of treated KG-1 cells was co-cultured with γδ T_cells at a ratio of 1 tumor cell to 1 γδ T-cell and at 1 tumor cell to 5 γδ T-cells. In addition, 100 U/mL of IL-2 was also given to each treatment group. […]
After 4 h incubation, the cell cultures were stained with AnnexinV FITC (BD) in order to measure the percentage of apoptotic cells. The samples were analysed by flow cytometry and the principle is that tumor cell death is measured by analysing PKH26^+AnnexinV^+ cells.

For data set [1], the system named is M109R (doxorubicin resistant) carcinoma. Format: in vivo, mouse. As to conditions: M109R footpad tumor, i.v. 5 mg/kg doxorubicin or equivalent ALD, D7, D14, D21.
A further data set deals with KB-hiFR. The experiment in a line: In vitro cytotoxicity, 72 hr continuous exposure, methylene blue staining. It is filed as cell-based, human. The note with it: for IC50: KB-hiFR, 72 hr continuous exposure. The protocol: (§1) Cytotoxicity was assayed using varying concentrations of ALD (0.1-200 μM) under standard 72 hr, continuous exposure, in 96-multiwell assays. Growth rate was assessed colorimetrically based on methylene blue staining and data was obtained with an automatic plate reader and IC50 values were determined

Data set [2] relates to IGROV-1 ovarian carcinoma. The description is as above. It is filed as cell-based, human. The protocol:
as §1
Cytotoxicity was assayed as described above in Example 1.

Data set [3] concerns N87 human gastric carcinoma cells. Described as above. It is filed as cell-based. The note with it: N-87. The procedure: as §1

For orientation: IC50 means the concentration needed to halve the response being measured. High values mean weaker potency, low ones greater potency. For `NCCCC(O)(P(=O)(O)O)P(=O)(O)O` [Free ALD, 4-amino-1-hydroxybutylidene-1,1-bisphosphonic acid], the “tumor cell killing / sensitivity to γδ T-cells (PKH26+AnnexinV+ cells)” value in the data set with KG-1 cells is listed as “enhances tumour sensitivity to γδ T-cells' cytotoxic action”. For the same compound, in data set [1], the anti-tumor activity result is recorded as “no anti-tumor effect”. The IC50 with KB-hiFR (Homo sapiens) is greater than 20 µM. Besides, the “cytotoxicity (in words)” value with KB-hiFR (stated for KB, N87 and IGROV cell lines together (FIGS. 3B-3D)) is given as “essentially no cytotoxicity”.
As to `COc1cccc2c1C(=O)c1c(O)c3c(c(O)c1C2=O)C[C@@](O)(C(=O)CO)C[C@@H]3O[C@H]1C[C@H](N)[C@H](O)[C@H](C)O1` [Free DOX, doxorubicin], the results for the 50% inhibitory concentration (IC50) (with KB-hiFR; in data set [2]; in data set [3]) were 0.04 µM, 0.25 µM and 3.12 µM, respectively.

Values taken from patent US10085940B2, “Liposomes co-encapsulating a bisphosphonate and an amphipathic agent” (YISSUM RESEARCH DEVELOPMENT COMPANY OF THE HEBREW …, priority 2011, dated 2018).
